Test results as given in ChEMBL document CHEMBL1129455, “Chemistry of the pyrrolo[1,2-alpha]benzimidazole antitumor agents: influence of the 7-substituent on the ability to alkylate DNA and inhibit topoisomerase II” (1996).

Tests used:
Format in all cases: functional
Cancer cell lines [1] = test: concentration to inhibit 50%cancer cell growth and the value is the mean value which was obtained from 60 cancer cell line assay
Cancer cell lines [2] = test: concentration to inhibit 100%cancer cell growth and the value is the mean value which was obtained from 60 cancer cell line assay; settings: read-out: Log TGI (converted)
Cancer cell lines [3] = test: The concentration to cause 50% cancer cell lethality and the value is the mean value which was obtained from 60 cancer cell line assay

SMILES | GI50 (Cancer cell lines [1]) [µM] | TGI (Cancer cell lines [2]) [µM] | LC50 (Cancer cell lines [3]) [µM]
COC1=C(N2CC2)C(=O)c2nc3n(c2C1=O)CCC3 | 0.708 | 2.51 | 13.5
CC1=C(N2CC2)C(=O)c2nc3n(c2C1=O)CCC3 | 0.0182 | 0.105 | 2.04
CC(=O)NC1=C(C)C(=O)c2c(nc3n2CCC3)C1=O | 1.45 | 3.72 | 10.7
CC(=O)OC1CCn2c1nc1c2C(=O)C=C(N2CC2)C1=O (configuration not stated) | 0.269 | 1.07 | 5.25
COC1=C(NC(C)=O)C(=O)c2nc3n(c2C1=O)CCC3OC(C)=O (configuration not stated) | 18.6 | 38.9 | 74.1
O=C1C(N2CC2)=CC(=O)c2c1nc1n2CCC1 | 0.363 | 1.35 | 5.5
CC(=O)OC1CCn2c1nc1c2C(=O)C(C)=C(N2CC2)C1=O (configuration not stated) | 0.012 | 0.0316 | 0.245
O=C1C=C(N2CC2)C(=O)c2c1nc1n2CCC1 | > 100 | > 100 | > 100
CC(=O)NC1=C(C)C(=O)c2c(nc3n2CCC3OC(C)=O)C1=O (configuration not stated) | 1.58 | 4.79 | 18.6
